From US4990538A, “Use of toremifene and its metabolites for the reversal of multidrug resistance of cancer cells against cytotoxic drugs” (priority 1989, dated 1991)
“Also recorded” adds a separate entry of the source.

How the values were obtained:
[1] = system: α1 -acid glycoprotein (AAG); details: cited from earlier work
HOV-007 = experiment: Number of living cells (bioluminescence), ovarian cancer line HOV-007; details: doxorubicin 0 μg/ml, 3 days
Procedure: (§1) Two human ovarian cell lines were established in vitro from fresh serous ovarian cancer tissues. The lines are coded HOV-007 and HOV-018. The cells were cultivated in Eagle's MEM containing 1% unstripped foetal calf serum. The assays were carried out at 37° C. in 5% CO2 on 96 well plates.
presented. Number of cells was quantitated after 3 days'

[2] = cited from earlier work
CHO-K1 cells [3] = experiment: Doxorubicin transport (accumulation) in CHO-K1 cells; type: cell-based; details: 2 μM toremifene; 1 μM doxorubicin; wild-type CHO-K1
CHO-K1 cells [4] = experiment: MTT cell viability assay in wild-type CHO-K1 cells
Procedure: (§4) Initial cell growth studies were carried out to investigate the effect of combination toremifene +doxorubicin in doxorubicin sensitive and resistant cells. Cell cultures were carried out using wild type CHO-K1 cells as well as CHO-Adr cells, the latter being selected by a series of step-wise selections of doxorubicin resistant clones in presence of 0.4 ug/ml of doxorubicin. […] The resistant cells were stable in cell culture in the absence of doxorubicin. Both cell lines were cultivated in Hams F10 medium supplemented with 5% newborn calf serum, 5% foetal calf serum, antibiotics and 3mM glutamine. The cells were maintained as monolayer cultures 37° C. under 5% CO2. Drug sensitivity in CHO-K1and CHO-Adr cells was assessed by a semi-automated colorimetric MTT assay. The assay is dependent on the cellular reduction of MTT (3-U4,5-dimethylthiazol-2-ylA-2,5-diphenyl tertazolium bromide, thiazolyl blue) by the mitochondrial dehydrogenase of viable cells to a blue formazan product which was measured spectrophotometrically. The cells were seeded on 96-well plates and allowed to settle for 12 hours at 37° C. in 5% CO2. Appropriate drug concentrations diluted in growth medium were added for 24 hours. Toremifene was dissolved in 95% ethanol stock solution, doxorubicin stock solution was prepared in water. […] The cells were incubated with the drugs for 24 hours, after which the cells were washed twice with phosphate buffered saline before being placed in 200 μl fresh medium for a further 48 hours. At the end of this incubation 0.1 mg MTT was added to each well and incubated for 4 hours. The medium was carefully aspirated and the crystals were solubilised in 100 μ l DMSO (dimethyl sulfoxide). Absorbances at 540 nm were read immediately on an ELISA Multiskan reader. The results were expressed as a percentage of absorbance of drug treated cells compared to controls.
(§5) The effect of AAG in the concentration of 0.1 to 2 mg/ml was assessed on the potentiation produced by toremifene.

MCF-7/DOX cells = experiment: Inhibition of cell growth / reversal of MDR in MCF-7/DOX cells (methylene blue); type: cell-based, human; details: for Inhibition of cell growth, Actual: 2880 min
Procedure: The cells were cultivated in 100 ul volumes in 96-well microtiter plates. The principle of the method was to cultivate cells in the presence of the drugs/ drug combinations for 48 hours. After this time the living cells were stained with methylene blue and quantitated spectrophotometrically using microtiter plate reader (Titertek Model MCC/340) interfaced to an Apple IIe computer. Inhibition of the cell growth is expressed as a percentage of absorbance of vehicle treated control cultures.

Human melanoma UV-me-1 = experiment: Toremifene and doxorubicin in human melanoma UV-me-1; details: doxorubicin 0 μg/ml, 2 days, control 100
MCF-7/DOX = experiment: Sensitization of MCF-7/DOX by patients' plasma ultrafiltrate; type: cell-based, human; details: FIG. 8
Procedure: Cells were growth in Corning 75-cm^2 tissue flasks and were maintained in exponential growth using RPMI 1640 medium supplemented with 5% fetal bovine serum in 5% CO2 and 95% air. […] The cells were cultivated in 100 ul volumes in 96-well microtiter plates. The principle of the method was to cultivate cells in the presence of the drugs/ drug combinations for 48 hours. After this time the living cells were stained with methylene blue and quantitated spectrophotometrically using microtiter plate reader (Titertek Model MCC/340) interfaced to an Apple IIe computer. Inhibition of the cell growth is expressed as a percentage of absorbance of vehicle treated control cultures. Human plasma samples were obtained from patients participating clinical phase I studies receiving 10, 20, 40, 60, 200 or 400 mg toremifene daily for eight weeks. Ultrafiltrate from the plasma was prepared by placing plasma specimens in Amicon CF-10 filters (MW cutoff 10 000) followed by centrifugation at 5000×g for 20 minutes. The ultrafiltrates were used in order to study if the concentrations achieved clinically were able to sensitize MCF-7/DOX. Part of the growth medium was replaced by plasma ultrafiltrate and the cells were allowed to grow for 4 days, at which time they were stained and quantitated as described above.

HOV-018 = experiment: Number of living cells (bioluminescence), ovarian cancer line HOV-018; details: doxorubicin 0 μg/ml
Procedure: as §1

in vitro [5] = details: hamster, cho-adr cells
Procedure: as §4, §5

in vitro [6] = details: hamster, cho-k1 cells
Procedure: as §4, §5

Lewis Lung (LL) tumor = experiment: Schedule dependency of antitumor effect in Lewis Lung tumor; details: toremifene 150 mg/kg p.o. days 1-5
Procedure: (§2) Lewis Lung (LL) or melanoma B-16 tumor cells, 2×10^6 cells/animal, were inoculated intramuscularly to female C-57 mice. Tumors were allowed to grow to the mean diameter of 1.5 cm after which toremifene/doxorubicin treatments were started as indicated in the next tables. Tumor size was measured before treatment and after 10 days in 2 dimensions and the mean was considered as tumor diameter. Weight of the animals was also recorded.

CHO-Adr cells = experiment: MTT cell viability assay in doxorubicin resistant CHO-Adr cells
Procedure: as §4, §5

B-16 melanoma = experiment: Schedule dependency of antitumor effect in B-16 melanoma; details: toremifene 150 mg/kg p.o. days 1-5
Procedure: as §2

[7] = mouse, in vivo
Procedure: (§3) Pieces of fresh human tumors were implanted under the outer capsule of mouse kidney. Mice were treated with different combinations of cytotoxic drugs (doses preselected according to toxicity of each combination), with or without toremifene (150 mg/kg p.o.). Control animals received saline injections. The drugs were given on five consecutive days after the inoculation of the tumors. The sizes of the tumor pieces were measured by stereo microscope equipped with ocular micrometer immediately after inoculation (initial size) and on the sixth day when the animals were killed (final size). The difference final size - initial size describes the growth or regression of the tumor. The measuring unit was ocular micrometer unit (omu). 10 omu is identical to 1.0 mm. In addition to the tumor size, the weight gain of the animals was measured. The weight gain describes the toxicity of the treatment. In general, the ratio final weight/ pretest weight should be more than 0.80. Otherwise the toxicity is considered unacceptable.

Ovarian ca. = details: subrenal capsule assay, all tumor types
Procedure: as §3

[8] = drug 3.0 μg/ml +1 μM doxorubicin

SMILES: CN(C)CCOc1ccc(/C(=C(/CCCl)c2ccccc2)c2ccccc2)cc1 [toremifene]
- Binding to α1-acid glycoprotein [1]: bound in some extent
- Number of living cells (HOV-007; toremifene 1.0 μM): 95% of control values
- Number of living cells (HOV-007; toremifene 3.0 μM): 71% of control values
- Number of living cells (HOV-007; toremifene 10.0 μM): 66% of control values
- Safety / toxicity in clinical use ([2]; at dose levels or concentrations required for MDR reversal): very safe drug
- maximal tolerated dose ([2]; clinical phase I trials): 400 to 600 mg daily
- Drug accumulation of doxorubicin (CHO-K1 cells [3]): enhanced drug accumulation
- Effect of AAG on toremifene toxicity (CHO-K1 cells [4]; AAG 2 mg/ml): protected both cell lines from toremifene toxicity
- Effect of toremifene on doxorubicin toxicity at highest AAG level (CHO-K1 cells [4]; AAG 2 mg/ml): cell viability was no different from that when doxorubicin alone was present; also recorded: no longer any effect of toremifene on doxorubicin toxicity
- AAG concentration above which potentiation by toremifene is gradually reversed (CHO-K1 cells [4]; doxorubicin + 10 μM toremifene): above 0.5 mg/ml
- Potentiation of doxorubicin toxicity (CHO-K1 cells [4]; toremifene 1 to 10 μM): incremental potentiation of doxorubicin toxicity
- Effectiveness in reversing MDR (MCF-7/DOX cells; MCF-7/DOX cells, Table 5 and FIG. 7): almost equally effective
- Inhibition of cell growth, Actual (MCF-7/DOX cells; [8]): 38 % control
- Potential (potentiation of doxorubicin activity) (MCF-7/DOX cells; [8]): 58 % control
- Inhibition of cell growth, Actual (MCF-7/DOX cells; drug […] +1 μM doxorubicin): 31 % control
- Potential (potentiation of doxorubicin activity) (MCF-7/DOX cells; drug […] +1 μM doxorubicin): 48 % control
- Toremifene and doxorubicin in UV-me-1 (living cells) (Human melanoma UV-me-1; toremifene 0.5 μM): 97
- Toremifene and doxorubicin in UV-me-1 (living cells) (Human melanoma UV-me-1; toremifene 5.0 μM): 32
- MDR reversing effect in patients' sera (MCF-7/DOX): A clear concentration-dependency
- Number of living cells (HOV-018; toremifene 1.0 μM, 4320 min): 104% of control values
- Number of living cells (HOV-018; toremifene 3.0 μM): 99% of control values
- Number of living cells (HOV-018; toremifene 10.0 μM, 4320 min): 97% of control values
- MCC at 24 h (in vitro [5]): > 10 µM
- MCC at 24 h (in vitro [6]): > 10 µM
- Change of tumor diameter (Lewis Lung (LL) tumor): +5.4 mm
- Potentiation of doxorubicin toxicity (CHO-Adr cells; CHO-Adr): the degree of potentiation was greater
- Relative potentiation of doxorubicin toxicity, resistant vs wild-type (CHO-Adr cells; CHO-Adr vs CHO-K1, increasing concentrations of toremifene): far greater in the CHO-Adr cell line than in the parent cell line; also recorded: greater for the resistant than the wild-type cells
- Effect of AAG on toremifene toxicity (CHO-Adr cells; CHO-Adr, AAG 2 mg/ml): protected both cell lines from toremifene toxicity
- Effect of toremifene on doxorubicin toxicity at highest AAG level (CHO-Adr cells; CHO-Adr, AAG 2 mg/ml): cell viability was no different from that when doxorubicin alone was present; also recorded: no longer any effect of toremifene on doxorubicin toxicity
- AAG concentration above which potentiation by toremifene is gradually reversed (CHO-Adr cells; CHO-Adr, doxorubicin + 10 μM toremifene): above 0.5 mg/ml
- Increase of sensitivity to doxorubicin (CHO-Adr cells; CHO-K1 and CHO-Adr, toremifene concentrations not inhibiting cell growth on their own): can be increased by toremifene concentrations which do not inhibit cell growth on their own
- Change of tumor size (B-16 melanoma): +3.2 mm
- Effect of toremifene addition on weight gain [7]: not influenced by toremifene addition
- Sensitivity to cytotoxic drugs in human tumors (Ovarian ca.): can increase the sensitivity to cytotoxic drugs in human tumors
